We go through one compound from patent publication US20230284994A1, “PET-CT IMAGING METHODS, CONTRAST AGENTS AND PHARMACEUTICAL COMPOSITIONS FOR USE IN SAID IMAGING METHODS” (ADIPOSS SÁRL, priority 2020, published 2023).

One assay concerns tumour metastases. In words: 18FDG PET-CT scan for metastases in syngeneic B16F10 melanoma mouse model, necropsy as standard of truth. Type of assay: in vivo, C57B1/6 mice. The following applies: six mice, 24 metastases by necropsy; scan without (18FDG only) or with oral PET-CT contrast agent. The method, then: Syngeneic mouse melanoma model (with tumor metastases dissemination to the lungs) was induced by intravenous injection of B16F10 murine melanoma cancer cells in C57B1/6 mice. 19 days after cells injection, the animals were administered with ^18FDG and a PET-CT scan was performed on each animal. One day later, the PET-CT contrast agent was administered via oral route to the same animals. Then, a second ^18FDG PET-CT scan was performed. The animals were then euthanized and necropsy was performed on each animal. Assessment of the PET-CT scans for co-localization of positive contrast enhancement of ^18FDG and PET-CT contrast agent allowed discriminating metastases from brown adipose tissue (FIGS. 2a and 3a). The ^18FDG signals present in BAT, that could be interpreted as false positives (metastases), were correctly attributed to BAT, improving the specificity and positive predictive value of the PET-CT scan for tumour metastases. This was confirmed by necropsy (FIGS. 2b, c and 3b, c). In total, based on necropsy (standard of truth), the six mice presented 24 metastases (four per mouse on average). […] Without the PET-CT contrast agent, the positive predictive value PPV of the ^18FDG PET-CT scan for metastases was 85% (FIG. 4). By using the PET-CT contrast agent, the PPV was 100%. The CT contrast agent thus improves the PPV of the ^18FDG PET-CT scan by 15%.

In the next assay the test system is brown adipose tissue. In words: 18FDG PET-CT scan for brown adipose tissue in syngeneic B16F10 melanoma mouse model, confirmed by necropsy. Type of assay: in vivo, C57B1/6 mice. The following applies: 12 scans (six with, six without contrast agent); based on 18FDG uptake or on uptake of PET-CT contrast agent. The method, then:
Syngeneic mouse melanoma model (with tumor metastases dissemination to the lungs) was induced by intravenous injection of B16F10 murine melanoma cancer cells in C57B1/6 mice. 19 days after cells injection, the animals were administered with ^18FDG and a PET-CT scan was performed on each animal. One day later, the PET-CT contrast agent was administered via oral route to the same animals. Then, a second ^18FDG PET-CT scan was performed. In total, 12 ^18FDG PET-CT scans were performed (six with and six without the PET-CT contrast agent). The animals were then euthanized and necropsy was performed. Assessment of the PET-CT scans for absence of ^18FDG uptake but presence of contrast enhancement due to the PET-CT contrast agent allowed easy and robust detection of brown adipose tissue, increasing the sensitivity and positive predictive value of the PET-CT scan or BAT. In total, ^18FDG uptake in BAT was present in nine out of 12 PET-CT scans. However, all mice had BAT. Based on ^18FDG uptake, the sensitivity of the PET-CT scan for BAT was 75% (FIG. 5). Based on the uptake of the PET-CT contrast agent, the sensitivity for BAT was 100%. Using the PET-CT contrast agent, the sensitivity of the PET-CT scan for BAT in mice was thus improved by 25%.

With `O=C[C@H]([18F])[C@@H](O)[C@H](O)[C@H](O)CO` [^18FDG, 2-[fluorine-18]fluoro-2-deoxy-D-glucose], the “positive predictive value PPV of the 18FDG PET-CT scan for metastases” value with tumour metastases is on record as 85%. Besides, in the assay with brown adipose tissue, the “sensitivity of the 18FDG PET-CT scan for BAT” value amounted to 75%.
